Results published in ChEMBL document CHEMBL3588813, “Antifungal Amphiphilic Aminoglycosides” (Medchemcomm, 2014).
Converted amounts (≈) assume the structure as drawn.

Columns and labels:
[1] = system: Staphylococcus aureus; test: Antimicrobial activity against Staphylococcus aureus ATCC 25923 assessed as inhibition of bacterial growth incubated at 35 degC for 12 to 18 hrs; format: functional
[2] = system: Escherichia coli; test: Antimicrobial activity against Escherichia coli ATCC 25922 assessed as inhibition of bacterial growth incubated at 35 degC for 12 to 18 hrs; format: functional
[3] = Induction of hemolysis in sheep erythrocytes incubated at 37 degC for 60 mins; format: cell-based, Ovis aries, Erythrocyte
[4] = system: Pseudomonas aeruginosa; test: Antimicrobial activity against Pseudomonas aeruginosa ATCC 27853 assessed as inhibition of bacterial growth incubated at 35 degC for 12 to 18 hrs; format: functional
[5] = system: Staphylococcus aureus; test: Antimicrobial activity against methicillin-resistant Staphylococcus aureus ATCC 33591 assessed as inhibition of bacterial growth incubated at 35 degC for 12 to 18 hrs; format: functional
[6] = system: Fusarium graminearum; test: Antimicrobial activity against Fusarium graminearum B4-5A using RPMI medium by microbroth dilution assay; format: functional
[7] = system: Enterococcus faecalis; test: Antimicrobial activity against vancomycin-resistant Enterococcus faecalis ATCC 1299 assessed as inhibition of bacterial growth incubated at 35 degC for 12 to 18 hrs; format: functional
[8] = system: Fusarium graminearum; test: Antimicrobial activity against Fusarium graminearum B4-5A using potato dextrose broth as growth medium and diluent; format: functional
[9] = system: Botrytis cinerea; test: Antimicrobial activity against Botrytis cinerea using potato dextrose broth as growth medium and diluent; format: functional
[10] = system: Rhodotorula mucilaginosa; test: Antimicrobial activity against Rhodotorula piliminae using potato dextrose broth as growth medium and diluent; format: functional

Row | SMILES | MIC [1] [µg/mL] | MIC [2] [µg/mL] | IC90 at 1 h [3] [µg/mL] | MIC [4] [µg/mL] | MIC [5] [µg/mL] | MIC [6] [µg/mL] | MIC [7] [µg/mL] | MIC [8] [µg/mL] | MIC [9] [µg/mL] | MIC [10] [µg/mL]
1 | CCCCCCc1cn(C[C@H]2O[C@@H](O[C@@H]3[C@@H](O)[C@H](N)C[C@H](N)[C@H]3O[C@H]3O[C@H](CN)[C@@H](O)[C@H](O)[C@H]3N)[C@H](O)[C@@H]2O[C@H]2O[C@@H](CN)[C@@H](O)[C@H](O)[C@H]2N)nn1 | 4 (≈ 5.33 µM) | 32 (≈ 42.7 µM) |  |  |  |  |  |  |  | 
2 | CCCCCCCCCCCCCCCC(=O)NC[C@H]1O[C@@H](O[C@@H]2[C@@H](O)[C@H](N)C[C@H](N)[C@H]2O[C@H]2O[C@H](CN)[C@@H](O)[C@H](O)[C@H]2N)[C@H](O)[C@@H]1O[C@H]1O[C@@H](CN)[C@@H](O)[C@H](O)[C@H]1N | 1 (≈ 1.17 µM) | 4 (≈ 4.69 µM) | > 1000 | 4 (≈ 4.69 µM) | 2 (≈ 2.35 µM) | 125 (≈ 147 µM) | 4 (≈ 4.69 µM) |  |  | 
3 | CCCCCCCCCCCCCCCCCC(=O)NC[C@H]1O[C@@H](O[C@@H]2[C@@H](O)[C@H](N)C[C@H](N)[C@H]2O[C@H]2O[C@H](CN)[C@@H](O)[C@H](O)[C@H]2N)[C@H](O)[C@@H]1O[C@H]1O[C@@H](CN)[C@@H](O)[C@H](O)[C@H]1N | 2 (≈ 2.27 µM) | 4 (≈ 4.54 µM) | > 1000 | 8 (≈ 9.09 µM) | 2 (≈ 2.27 µM) | 125 (≈ 142 µM) | 8 (≈ 9.09 µM) |  |  | 
4 | NC[C@@H]1O[C@H](O[C@H]2[C@@H](O)[C@H](O[C@@H]3[C@@H](O)[C@H](N)C[C@H](N)[C@H]3O[C@H]3O[C@H](CN)[C@@H](O)[C@H](O)[C@H]3N)O[C@@H]2CNC(=O)c2cc(-c3ccccc3)nc3ccccc23)[C@H](N)[C@@H](O)[C@@H]1O | 4 (≈ 4.73 µM) | 8 (≈ 9.47 µM) |  |  |  |  |  |  |  | 
5 | CCCCCCCCCCCC(=O)NC[C@H]1O[C@@H](O[C@@H]2[C@@H](O)[C@H](N)C[C@H](N)[C@H]2O[C@H]2O[C@H](CN)[C@@H](O)[C@H](O)[C@H]2N)[C@H](O)[C@@H]1O[C@H]1O[C@@H](CN)[C@@H](O)[C@H](O)[C@H]1N | 8 (≈ 10.1 µM) | 16 (≈ 20.1 µM) |  | 16 (≈ 20.1 µM) | 16 (≈ 20.1 µM) |  | 64 (≈ 80.4 µM) |  |  | 
6 | NCC[C@H](O)C(=O)N[C@@H]1C[C@H](N)[C@@H](O[C@H]2O[C@H](CN)[C@@H](O)[C@H](O)[C@H]2O)[C@H](O)[C@H]1O[C@H]1O[C@H](CO)[C@@H](O)[C@H](N)[C@H]1O [AMIKACIN] | 1 (≈ 1.71 µM) | 1 (≈ 1.71 µM) |  | 0.5 (≈ 0.854 µM) | 8 (≈ 13.7 µM) |  | ≥ 250 |  |  | 
7 | NC[C@H]1O[C@H](O[C@H]2[C@H](O)[C@@H](O[C@H]3O[C@H](CO)[C@@H](O)[C@H](N)[C@H]3O)[C@H](N)C[C@@H]2N)[C@H](N)[C@@H](O)[C@@H]1O [BEKANAMYCIN] |  |  |  |  |  |  |  | > 250 |  | 
8 | NC[C@@H]1O[C@H](O[C@H]2[C@@H](O)[C@H](O[C@@H]3[C@@H](O)[C@H](N)C[C@H](N)[C@H]3O[C@H]3O[C@H](CN)[C@@H](O)[C@H](O)[C@H]3N)O[C@@H]2CO)[C@H](N)[C@@H](O)[C@@H]1O [FRAMYCETIN] | 1 (≈ 1.63 µM) | 4 (≈ 6.51 µM) |  | 64 (≈ 104 µM) | 125 (≈ 203 µM) | 62.5 (≈ 102 µM) | ≥ 250 |  |  | 
9 | NC[C@@H]1O[C@@H](O[C@H]2[C@H](O)[C@@H](O[C@H]3O[C@H](CO)[C@@H](O)[C@H](N)[C@H]3O)[C@H](N)C[C@@H]2N)[C@@H](O)[C@H](O)[C@H]1O [KANAMYCIN A] |  |  |  |  |  | > 500 |  |  |  | 
10 | CC1(C)CCC(Cc2ccc(Cl)cc2)C1(O)Cn1cncn1 (configuration not stated) [METCONAZOLE] |  |  |  |  |  |  |  | 3.9 (≈ 12.2 µM) | 7.8 (≈ 24.4 µM) | 15.6 (≈ 48.8 µM)
11 | CN[C@H](CC(C)C)C(=O)N[C@H]1C(=O)N[C@@H](CC(N)=O)C(=O)N[C@H]2C(=O)N[C@H]3C(=O)N[C@H](C(=O)N[C@H](C(=O)O)c4cc(O)cc(O)c4-c4cc3ccc4O)[C@H](O)c3ccc(c(Cl)c3)Oc3cc2cc(c3O[C@@H]2O[C@H](CO)[C@@H](O)[C@H](O)[C@H]2O[C@H]2C[C@](C)(N)[C@H](O)[C@H](C)O2)Oc2ccc(cc2Cl)[C@H]1O [VANCOMYCIN] |  | 125 (≈ 86.3 µM) |  | ≥ 250 |  |  | 250 (≈ 173 µM) |  |  | 
